{
  "source": "patent US20240366813A1",
  "about": "“PEPTIDE-UREA DERIVATIVE, PHARMACEUTICAL COMPOSITION CONTAINING SAME AND APPLICATION THEREOF” (Bivision Pharmaceuticals, Inc., priority 0001, published 2024)",
  "key": {"PSMA protein": {"target": "PSMA protein (Homo sapiens (Human), UniProt Q04609)", "sequence (Q04609 whole entry)": "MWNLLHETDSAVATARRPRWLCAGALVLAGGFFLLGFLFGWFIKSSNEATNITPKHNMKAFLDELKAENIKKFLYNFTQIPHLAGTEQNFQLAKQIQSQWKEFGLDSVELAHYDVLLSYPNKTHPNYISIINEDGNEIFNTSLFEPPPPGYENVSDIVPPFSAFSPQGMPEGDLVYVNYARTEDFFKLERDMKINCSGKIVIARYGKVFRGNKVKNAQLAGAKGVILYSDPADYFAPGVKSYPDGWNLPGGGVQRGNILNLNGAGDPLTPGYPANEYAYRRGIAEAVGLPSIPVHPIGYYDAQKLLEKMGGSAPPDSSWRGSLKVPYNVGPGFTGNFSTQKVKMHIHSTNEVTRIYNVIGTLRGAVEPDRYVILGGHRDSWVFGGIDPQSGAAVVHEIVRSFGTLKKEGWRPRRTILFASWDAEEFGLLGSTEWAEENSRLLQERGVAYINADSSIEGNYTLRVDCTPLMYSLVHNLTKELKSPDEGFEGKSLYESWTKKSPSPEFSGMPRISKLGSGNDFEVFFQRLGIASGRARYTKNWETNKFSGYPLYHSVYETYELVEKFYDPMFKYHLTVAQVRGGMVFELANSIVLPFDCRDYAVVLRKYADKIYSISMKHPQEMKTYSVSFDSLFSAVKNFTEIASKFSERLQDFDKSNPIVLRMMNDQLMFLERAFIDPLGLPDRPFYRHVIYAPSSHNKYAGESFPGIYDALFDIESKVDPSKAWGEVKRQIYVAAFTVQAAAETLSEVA", "assay": "In vitro binding test of compound and PSMA protein (Biacore)", "settings": "Biacore 8K, 15° C., 1:1 binding model, KD in M; for Kd: read-out: pkD (pKD=−Log KD, binding affinity to PSMA protein) (converted)", "method": "A Biacore 8K (Cytiva) instrument was used to determine the binding affinity of disclosed compounds to the PSMA protein (Sinobiological). The PSMA protein was captured on SA chips. Before immobilizing the disclosed compounds (flow path 1 and 2, flow rate 10 μL/min), the PSMA protein was immobilized on flow path 2 by using flow buffer (10 μg/ml, flow rate 5 μL/min, injection time 600 s), and 1M NaCl was injected three times consecutively into 50 mM NaOH to condition the sensor surface. After each disclosed compounds injection, isopropanol in 1M NaCl and 50 mM NaOH was used for additional washing (flow path 1, 2, flow rate 10 μL/min, injection time 60 s).\nAll compounds were dissolved in 100% DMSO and diluted to 10 mM, and then diluted in test buffer (PBS, pH 7.4, 1 mM TCEP ([…]), 0.05% P20, 2% dimethyl sulfoxide) at an appropriate highest concentration. Analytes were run using the following conditions: 15° C. analysis temperature, analysis steps=all set to LMW kinetics; cycle type=single cycle (90 s contact time, 1800 s separation time, 30 ul/min flow rate, channels 1, 2); channel detection=2-1). Data were evaluated using Biacore Insight evaluation software, and data were fit to a 1:1 binding model.\nBiacore results are shown in Table 12: pKD=−Log KD, where KD is the binding affinity of the compounds to PSMA protein measured by Biacore. KD is expressed by KD (M)=Kd (1/s)/Ka (1/Ms)."}, "22rv1 xenograft tumor": {"tested_on": "22rv1 xenograft tumor", "assay": "Pharmacodynamic study in 22rv1 mouse xenograft tumor model (effect example 11)", "assay_type": "in vivo, mice", "settings": "for TGITV (relative tumor inhibition rate): Day 19; for Tumor volume, Administration in groups Day 19: mean ± standard error"}, "plasma protein": {"tested_on": "plasma protein", "assay": "Determination of plasma protein binding (PPB)", "assay_type": "in vitro ADME", "settings": "^177Lu-labeled, 37° C., 10 min, ultrafiltration, FIG. 6", "method": "Three EP tubes were taken, and 0.2 mL of plasma and 50 μL of ^177Lu-labeled compound were added to each tube. The mixture was incubated in a thermostat at 37° C. for 10 min, and then taken out and added to ultrafiltration tubes, respectively. The ultrafiltration tubes were centrifuged at 13,000 rpm for 45 min. 50 μL of normal saline was then added, and the mixture was centrifuged for another 15 minutes. The radioactive counts per minute of each tube casing and filtrate were then measured. PPB was calculated, and the mean of 3 tubes was recorded. PPB=[(supernatant counts-background counts)]/(subnatant counts+supernatant counts−2*background counts)]*100."}, "[1]": {"tested_on": "PSMA-positive (22RV1) tumor", "assay": "Specificity test, PET/CT in PSMA-positive (22RV1) tumor-bearing mice with and without PMPA", "assay_type": "in vivo", "settings": "^68Ga-E3 co-injected with PMPA (2 mg/Kg), FIG. 4", "method": "The ^68Ga-E3 radiolabeled compound was injected into the tail vein of PSMA-positive (22RV1) tumor-bearing mice (Jiangsu Huajing Molecular Imaging and Drug Research Institute Co., Ltd.) (about 7.4 MBq/mouse, specific activity: 22423.82 KBq/μg) ([…]). After administration, PET/CT was used for 1 h dynamic scanning, medium resolution whole body CT, and 10 min static scanning at 2 h and 3 h. It can be clearly seen from FIG. 3 that the drug is rapidly distributed into the animal body after administration, and the drug is rapidly metabolized by the kidneys and excreted from the body over time.\nThe next day, the mixture of ^68Ga-E3 and PSMA standard PMPA (2 mg/Kg) was injected into the tail vein of PSMA-positive tumor-bearing mice (about 7.4 MBq/mouse, specific activity: 22423.82 KBq/μg) (50 uCi). After administration, PET/CT was used for 1 h dynamic scanning, medium resolution whole body CT, and 10 min static scanning at 2 h and 3 h. The results are depicted in detailed in FIG. 4.\nPMPA is a specific inhibitor of PSMA. When PMPA is administered together with ^68Ga-E3, ^68Ga-E3 and PMPA are rapidly distributed to various organs in the animal body. However, PMPA occupies the PSMA target on the tumor, thus preventing the binding of ^68Ga-E3 to PSMA on the tumor."}, "LNCAP cells": {"tested_on": "LNCAP cells", "assay": "Cell binding test on LNCAP cells", "assay_type": "cell-based", "settings": "^177Lu-labeled, on ice 2 hours, FIG. 1", "method": "LNCAP cells in the logarithmic growth phase (Obio Technology (Shanghai) Corp., Ltd.) were made into a cell suspension. The cell suspension was adjusted to a cell density of 2×10^5/ml and inoculated 1 mL into a 24-well cell culture plate. Cells were incubated in an incubator at 37° C. for 48 hours. Three hours before the test, the medium was replaced with serum-free RPMI1640 medium (NEWZERUM), the cell culture medium was aspirated, and the cells were washed once with PBS. Serum-free RPMI1640 medium was used to prepare ^177Lu-E series compounds at concentrations of 32, 16, 8, 4, 1, 0.5, 0.1, 0.02, 0.01, 0.002 uCi/mL. The original medium was discarded, and then 1 mL of the prepared solution containing ^177Lu-E series compounds was added to each well. The plate was placed on ice for 2 hours, and then the cells were washed three times with 0.5 mL of ice-cold PBS. The washing solution was aspirated, and the cells were lysed with 0.5 mL of 1M NaOH and washed twice with 0.5 mL of PBS, and the sodium hydroxide (0.5 mL) and PBS (0.5 mL×2) solutions were collected. The uptake counts were determined."}, "[2]": {"assay": "Determination of Log P (n-octanol/water)", "assay_type": "physicochemical", "settings": "room temperature, FIG. 5", "method": "Three EP tubes were taken, and 0.5 mL of saturated n-octanol and 480 μL of ultrapure water were added into each EP tube. 20 μL (about 1 MBq) solution of E series compounds and reference compound were then added respectively. The mixture was shaken evenly and then centrifuged at room temperature (2000 r/min, 5 min, centrifugal radius: 10 cm). 100 μL was taken from the lipid layer and aqueous layer of each tube, and the radioactive counts per minute of the two phases were measured. The Log P value was calculated and the results were averaged."}, "[3]": {"settings": "300 μCi of ^177Lu-labeled test sample"}, "[4]": {"settings": "600 μCi of ^177Lu-labeled test sample"}},
  "data": [
    {"molecule": "O=C(O)CC[C@H](NC(=O)NC(CCCCNC(=O)[C@H](Cc1ccc2ccccc2c1)NC(=O)C1CCC2(CC1)CN(C(=O)CN1CCN(CC(=O)O)CCN(CC(=O)O)CCN(CC(=O)O)CC1)C2)C(=O)O)C(=O)O", "note": "(stereo partly shown) [Compound E2]", "values": [
      {"measurement": "Kd", "setting": "PSMA protein", "value": 0.229, "unit": "nM"}
    ]},
    {"molecule": "O=C(O)CC[C@H](NC(=O)NC(CCCCNC(=O)[C@H](Cc1ccc2ccccc2c1)NC(=O)c1ccc2c(c1)CCN(C(=O)CN1CCN(CC(=O)O)CCN(CC(=O)O)CCN(CC(=O)O)CC1)C2)C(=O)O)C(=O)O", "note": "(stereo partly shown) [Compound E3]", "values": [
      {"measurement": "TGITV (relative tumor inhibition rate)", "setting": "22rv1 xenograft tumor; [3]", "value": 71.00, "unit": "%"},
      {"measurement": "Tumor volume, Administration in groups Day 19", "setting": "22rv1 xenograft tumor; [3]", "value": "590.66 ± 103.97", "unit": "mm^3"},
      {"measurement": "TGITV (relative tumor inhibition rate)", "setting": "22rv1 xenograft tumor; [4]", "value": 80.42, "unit": "%"},
      {"measurement": "Tumor volume, Administration in groups Day 19", "setting": "22rv1 xenograft tumor; [4]", "value": "447.12 ± 47.84", "unit": "mm^3"},
      {"measurement": "PPB binding rate", "setting": "plasma protein", "value": "extremely high"},
      {"measurement": "pkD (pKD=−Log KD, binding affinity to PSMA protein)", "setting": "PSMA protein", "value": 9.26},
      {"measurement": "specificity against PSMA", "setting": "[1]", "value": "high specificity"}
    ]},
    {"molecule": "O=C(O)CC[C@H](NC(=O)N[C@@H](CCCCNC(=O)[C@H](Cc1ccc2ccccc2c1)NC(=O)c1ccc2c(c1)CN(C(=O)CN1CCN(CC(=O)O)CCN(CC(=O)O)CCN(CC(=O)O)CC1)CC2)C(=O)O)C(=O)O", "note": "[Compound E4]", "values": [
      {"measurement": "Kd", "setting": "PSMA protein", "value": 0.269, "unit": "nM"}
    ]},
    {"molecule": "O=C(O)CC[C@H](NC(=O)N[C@@H](CCCCNC(=O)[C@H](Cc1ccc2ccccc2c1)NC(=O)C1C2CN(C(=O)CN3CCN(CC(=O)O)CCN(CC(=O)O)CCN(CC(=O)O)CC3)CC21)C(=O)O)C(=O)O", "note": "(stereo partly shown) [Compound E8]", "values": [
      {"measurement": "pkD (pKD=−Log KD, binding affinity to PSMA protein)", "setting": "PSMA protein", "value": 9.49}
    ]},
    {"molecule": "O=C(O)CC[C@H](NC(=O)NC(CCCCNC(=O)[C@H](Cc1ccc2ccccc2c1)NC(=O)C1CCC2(CC1)CCN(C(=O)CN1CCN(CC(=O)O)CCN(CC(=O)O)CCN(CC(=O)O)CC1)CC2)C(=O)O)C(=O)O", "note": "(stereo partly shown) [Compound E9]", "values": [
      {"measurement": "Kd", "setting": "PSMA protein", "value": 0.282, "unit": "nM"}
    ]},
    {"molecule": "O=C(O)CC[C@H](NC(=O)N[C@@H](CCCCNC(=O)[C@H](Cc1ccc2ccccc2c1)NC(=O)c1ccc2cc(NC(=O)CN3CCN(CC(=O)O)CCN(CC(=O)O)CCN(CC(=O)O)CC3)ccc2c1)C(=O)O)C(=O)O", "note": "[Compound E21]", "values": [
      {"measurement": "pkD (pKD=−Log KD, binding affinity to PSMA protein)", "setting": "PSMA protein", "value": 9.82}
    ]},
    {"molecule": "O=C(O)CC[C@H](NC(=O)N[C@@H](CCCCNC(=O)[C@H](Cc1ccc2ccccc2c1)NC(=O)C1CC2(C1)CN(C(=O)CN1CCN(CC(=O)O)CCN(CC(=O)O)CCN(CC(=O)O)CC1)C2)C(=O)O)C(=O)O", "note": "[Compound E22]", "values": [
      {"measurement": "pkD (pKD=−Log KD, binding affinity to PSMA protein)", "setting": "PSMA protein", "value": 10.00}
    ]},
    {"molecule": "O=C(O)CC[C@H](NC(=O)N[C@@H](CCCCNC(=O)[C@H](Cc1ccc2ccccc2c1)NC(=O)c1cnc2cc(NC(=O)CN3CCN(CC(=O)O)CCN(CC(=O)O)CCN(CC(=O)O)CC3)ccc2c1)C(=O)O)C(=O)O", "note": "[Compound E25]", "values": [
      {"measurement": "pkD (pKD=−Log KD, binding affinity to PSMA protein)", "setting": "PSMA protein", "value": 10.15}
    ]},
    {"molecule": "O=C(O)CC[C@H](NC(=O)N[C@@H](CCCCNC(=O)[C@H](Cc1ccc2ccccc2c1)NC(=O)C1CCC(NC(=O)CN2CCN(CC(=O)O)CCN(CC(=O)O)CCN(CC(=O)O)CC2)CC1)C(=O)O)C(=O)O", "note": "(stereo partly shown) [Compound E26]", "values": [
      {"measurement": "cell binding ability", "setting": "LNCAP cells", "value": "excellent cell binding ability"},
      {"measurement": "pkD (pKD=−Log KD, binding affinity to PSMA protein)", "setting": "PSMA protein", "value": 9.44},
      {"measurement": "lipophilicity (Log P) compared with the reference compound PSMA-617", "setting": "[2]", "value": "better lipophilicity"}
    ]},
    {"molecule": "O=C(O)CC[C@H](NC(=O)N[C@@H](CCCCNC(=O)[C@H](Cc1ccc2ccccc2c1)NC(=O)[C@H]1CC[C@H](CNC(=O)CN2CCN(CC(=O)O)CCN(CC(=O)O)CCN(CC(=O)O)CC2)CC1)C(=O)O)C(=O)O", "note": "[PSMA-617, reference compound]", "values": [
      {"measurement": "TGITV (relative tumor inhibition rate)", "setting": "22rv1 xenograft tumor; [3]", "value": 15.49, "unit": "%"},
      {"measurement": "Tumor volume, Administration in groups Day 19", "setting": "22rv1 xenograft tumor; [3]", "value": "1,480.09 ± 446.83 mm^3"},
      {"measurement": "TGITV (relative tumor inhibition rate)", "setting": "22rv1 xenograft tumor; [4]", "value": 21.18, "unit": "%"},
      {"measurement": "Tumor volume, Administration in groups Day 19", "setting": "22rv1 xenograft tumor; [4]", "value": "1,389.81 ± 598.96 mm^3"},
      {"measurement": "Kd", "setting": "PSMA protein", "value": 0.00204, "unit": "nM"}
    ]}
  ]
}
